Experimental data as given in PMC9025555, “Chiral Recognition R- and RS- of New Antifungal: Complexation/Solubilization/Dissolution Thermodynamics and Permeability Assay” (Pharmaceutics, 2022).
“And” between values parts separate entries of the source, which are not always exact repeats. Equal values may be shown once.

Experiments:
[1] = Complexation parameters with 2-HP-β-CD from phase-solubility diagrams; type: physicochemical; details: for increase of the complex stability as compared to L-173: acidic buffer; for Complexation efficiency (CE) / apparent stability constant (KCS): 2-HP-β-CD
Protocol: Thermodynamic functions of the complexation process were determined from the phase solubility diagrams following Higuchi and Connors. The linear AL-type phase-solubility diagrams evidenced the complexes of the first order in respect to cyclodextrin. The equilibrium of the complex formation with 1:1 stoichiometry in the cyclodextrin solution can be described in the following manner:(1) D+CD↔KCD⋅CD where D is the drug molecule, CD is the cyclodextrin molecule, and D·CD is drug/cyclodextrin complex. Respectively, the complexation constant ( KC ) can be expressed by the equation:(2) KC=[D⋅CD]/[D][CD] where [D·CD] is the complex concentration, [CD] is the cyclodextrin concentration, and [D] is the drug concentration. A plot of total solubility ( S2 expressed in molarity—M) in the presence of CD versus CD concentration ( CCD ) (a phase-solubility profile) gives a straight line with a slope equal to (KCS⋅S20/(1+KCS⋅S20)) and intercept equal to S20 from which the apparent stability constants ( KCS ) were estimated via Higuchi–Connors equation [15]:(3) KCS=slope/S20⋅(1−slope), where S20 is the intrinsic solubility of the drug at designated pH in the absence of CD and the slope is the corresponding slope of the phase-solubility diagram.
From CE, the (D:CD) ratio can be derived, which is useful for the estimation of the solubility improvement in CD solutions. Using the CE value, the molar ratio (Drug:CD) was determined:(5) Drug:CD=1:(1+1/CE)

in vitro = in vitro ADME
Protocol: Permeability coefficients of RS-186 and R-98 were measured through the PermeaPad barrier (PHABIOC, Germany, Espelkamp, www.permeapad.com, accessed on 20 May 2021) of an effective surface area of 0.785 cm^2 in a vertical type of Franz diffusion cell (PermeGear, Inc., Hellertown, PA, USA) with 7 mL volume. PermeaPad is a biomimetic membrane proposed by di Cagno and Bauer-Brandl for the fast screening of the permeability of the marketed drugs and drug-like compounds. In brief, the barrier was mounted between the donor and receptor chambers. The donor chamber was filled with a stock solution of the investigated substance in buffer solution at pH 2.0 or pH 7.4 and was stirred vigorously during the permeability experiment. The receptor compartment contained 1 mL of the respective fresh buffer. The system was thermostated at 310.15 ± 0.1 K. A probe of 0.5 mL was withdrawn every 30 min from the receptor chamber and replaced with an equal amount of the respective fresh buffer. The permeation process followed the reverse dialysis. The withdrawn samples were analyzed in 96-well UV black plate (Costar) via spectrophotometer (Spectramax 190; Molecular devices, Molecular Devices Corporation, California, CA, USA) at the appropriate wavelength. The permeation profiles were plotted as the amount of the permeated drug over the surface area ( dQ/A ) versus the time ( t ). The flux ( J ) was calculated as a slope of permeation profiles according to the equation:(6) J=dQ/A×dt
The apparent permeability coefficient ( Papp ) was calculated by normalizing the flux measured over the concentration of the drug in the donor compartment ( C0 ), as described by the equation:(7) Papp=J/Co
Each permeability experiment was repeated at least 3 times and the average value of Papp was determined.

O=C1S/C(=C\c2ccc(Cl)cc2)C(=O)N1CC(O)CN1CCN(CC(O)(Cn2cncn2)c2ccc(F)cc2F)CC1 (stereo not drawn) [RS-186, (Z)-5-(4-chlorobenzylidene)-3-(3-(4-(2-(2,4-difluorophenyl)-2-hydroxy-3-(1H-1,2,4-triazol-1-yl)propyl)piperazin-1-yl)-2-hydroxypropyl)thiazolidine-2,4-dione]
increase of the complex stability as compared to L-173 ([1]; 298.15 K): ~2.8 fold
increase of the complex stability as compared to L-173 ([1]; 315.15 K): ~1.8 fold
Complexation efficiency (CE) ([1]; pH 2.0, 298.15 K): 35.4%
apparent stability constant (KCS) ([1]; pH 2.0, 298.15 K): 708.9 M⁻¹ and 708.9 ± 71.4 M⁻¹
Complexation efficiency (CE) ([1]; pH 2.0, 303.15 K): 36.9%
apparent stability constant (KCS) ([1]; pH 2.0, 303.15 K): 688.0 ± 60.3 M⁻¹
Complexation efficiency (CE) ([1]; pH 2.0, 310.15 K): 39.1%
apparent stability constant (KCS) ([1]; pH 2.0, 310.15 K): 646.7 ± 61.5 M⁻¹
Complexation efficiency (CE) ([1]; pH 2.0, 313.15 K): 43.2%
apparent stability constant (KCS) ([1]; pH 2.0, 313.15 K): 623.6 ± 60.0 M⁻¹
ability for complex formation with CD, racemic compound as compared to R-isomer ([1]; pH 2.0 stability constants (Table 2)): 1.3 fold
CE decrease with the temperature growth ([1]; pH 7.4): 17 fold
Complexation efficiency (CE) ([1]; pH 7.4, 298.15 K): 10.3%
Complexation efficiency (CE) ([1]; pH 7.4, 303.15 K): 4.6%
Complexation efficiency (CE) ([1]; pH 7.4, 310.15 K): 1.7%
Complexation efficiency (CE) ([1]; pH 7.4, 313.15 K): 0.6%
permeability decrease up to 0.03 M concentration of CD in donor solution (in vitro; buffer pH 7.4): 8.89 fold
permeability classification (developers of PermeaPad) (in vitro; in the presence of 0.01 M CD): low
permeability reduction up to 0.03 M concentration of CD in donor solution (in vitro; pH 2.0): 8.72 fold
Permeability Coefficient (Papp) (in vitro; pH 2.0, CD 0.01087 M, 310.15 K): (1.12 ± 0.09) × 10^−6 cm·s^−1
permeability classification (developers of PermeaPad) (in vitro; pure buffers, classification of ref 18): medium permeable
